Article PMC10935723 (Chemical Science, 2024)

Experiments:
[1] = test system: HCT-15; details: read-out: IC50 HCT-15; cited from earlier work
[2] = test system: NCI-H460; details: read-out: IC50 NCI-H460; cited from earlier work
[3] = test system: SUIT2, MIA PaCa-2 and MDA-MB-231 cell lines; test: cells; format: cell-based; details: read-out: IC50 values (range)
[4] = test system: patient-derived PDAC organoids; format: cell-based, human
[5] = test system: MIA PaCa-2/GemLuc cells; format: cell-based
[6] = test system: MCF-7 breast cancer cells; test: cells; format: cell-based; details: Homo sapiens, MCF7, 72 h, read-out: IC50 against MCF-7 breast cancer cells

**Q.** For `COc1ccc(/C=C\c2cc(OC)c(OC)c(OC)c2)cc1O` [CA-4, combretastatin A4], which IC50 [1] is on record?
**A.** Its IC50 is 1.7 nM.

**Q.** And the IC50 [2]?
**A.** Its IC50 is 3 nM.

**Q.** And the IC50 [3]?
**A.** Its IC50 is 2.4 to 8.7 nM.

**Q.** For `Cc1cc2cc(O)ccc2[nH]1` [Compound L01, 2-Methyl-1H-indol-5-ol], which “antiproliferative activity against patient-derived PDAC organoids” value [4] is on record?
**A.** The value was “no antiproliferative activity”.

**Q.** What about the “cell cycle arrest (red S/G2/M bioluminescence)” value [5] of the same compound?
**A.** Its value is “failed to elicit the same effect”.

**Q.** Which IC50 [6] does the source give for `C[C@]12CC[C@@H]3c4ccc(O)cc4CC[C@H]3[C@@H]1CCC2=O` [estrone (5), Estrone] here?
**A.** Its IC50 is over 200000 nM.
